“And” between values parts separate entries of the source, which are not always exact repeats. Equal values may be shown once. Toxic doses and inconclusive results are not listed. Rule as the data show it: active = T/C of 150% or more; inactive = T/C below 125%.
System: L1210 leukemia ip in BDF1 mice, survival T/C
Experiment: NCI In Vivo Anticancer Drug Screen. Data for tumor model L1210 Leukemia (intraperitoneal) in B6D2F1 (BDF1) mice
Details: higher = longer survival
Method in brief: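 Antitumor effect is assessed in tumor-bearing animals. Survival in the compound arm is compared with a vehicle-dosed control arm and expressed as their quotient.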

Measured: T/C

N=[N+]=CC(=O)OCC(N)C(=O)O (stereo unspecified)
inactive: endpoint: mean survival time, dose: 0.06 mg/kg/injection, schedule: Q#A X Z (ip), vehicle: saline 117 % of control | endpoint: mean survival time, dose: 0.43 mg/kg/injection, schedule: Q01DX009 (ip), vehicle: saline 111 % of control | endpoint: mean survival time, dose: 0.5 mg/kg/injection, schedule: Q01DX010 (ip), vehicle: saline 119 % of control | endpoint: mean survival time, dose: 0.5 mg/kg/injection, schedule: Q01DX Z (ip), vehicle: saline 117 % of control and 118 % of control | endpoint: mean survival time, dose: 0.85 mg/kg/injection, schedule: Q01DX009 (ip), vehicle: saline 105 % of control and 111 % of control | endpoint: mean survival time, dose: 1.0 mg/kg/injection, schedule: Q01DX Z (ip), vehicle: saline 115 % of control | endpoint: mean survival time, dose: 1.3 mg/kg/injection, schedule: Q04DX002 (ip), vehicle: saline 98 % of control and 112 % of control | endpoint: mean survival time, dose: 1.7 mg/kg/injection, schedule: Q01DX009 (ip), vehicle: saline 115 % of control | endpoint: mean survival time, dose: 1.8 mg/kg/injection, schedule: Q01DX Z (ip), vehicle: carboxymethylcellulose (CMC) 108 % of control and 120 % of control | endpoint: mean survival time, dose: 2.0 mg/kg/injection, schedule: Q01DX005 (ip), vehicle: saline 114 % of control | endpoint: mean survival time, dose: 2.0 mg/kg/injection, schedule: Q01DX Z (oral), vehicle: saline 110 % of control | endpoint: mean survival time, dose: 2.0 mg/kg/injection, schedule: Q01DX Z (sc), vehicle: saline 118 % of control | endpoint: mean survival time, dose: 2.5 mg/kg/injection, schedule: Q04DX002 (ip), vehicle: saline 106 % of control and 110 % of control | endpoint: mean survival time, dose: 3.5 mg/kg/injection, schedule: Q07DX003 (ip), vehicle: saline 115 % of control | endpoint: mean survival time, dose: 4.0 mg/kg/injection, schedule: Q01DX009 (ip), vehicle: saline 121 % of control | endpoint: mean survival time, dose: 4.0 mg/kg/injection, schedule: Q01DX Z (im), vehicle: saline 118 % of control | endpoint: mean survival time, dose: 4.0 mg/kg/injection, schedule: Q01DX Z (sc), vehicle: saline 119 % of control | endpoint: mean survival time, dose: 4.0 mg/kg/injection, schedule: Q03HX024 (oral), vehicle: saline 117 % of control | endpoint: mean survival time, dose: 4.0 mg/kg/injection, schedule: Q## X003 (ip), vehicle: saline 106 % of control | endpoint: mean survival time, dose: 5.0 mg/kg/injection, schedule: Q04DX002 (ip), vehicle: saline 117 % of control and 121 % of control | endpoint: mean survival time, dose: 7.0 mg/kg/injection, schedule: Q07DX003 (ip), vehicle: saline 117 % of control | endpoint: mean survival time, dose: 8.0 mg/kg/injection, schedule: Q01DX009 (ip), vehicle: saline 121 % of control | endpoint: mean survival time, dose: 8.0 mg/kg/injection, schedule: Q01DX009 (oral), vehicle: saline 105 % of control and 107 % of control | endpoint: mean survival time, dose: 8.0 mg/kg/injection, schedule: Q04DX003 (ip), vehicle: saline 113 % of control | endpoint: mean survival time, dose: 8.0 mg/kg/injection, schedule: Q## X002 (ip), vehicle: saline 102 % of control | endpoint: mean survival time, dose: 8.0 mg/kg/injection, schedule: Q## X003 (ip), vehicle: saline 107 % of control and 113 % of control | endpoint: mean survival time, dose: 8.0 mg/kg/injection, schedule: Q## X003 (oral), vehicle: saline 97 % of control and 101 % of control | endpoint: mean survival time, dose: 8.0 mg/kg/injection, schedule: Q## X024 (oral), vehicle: saline 106 % of control | endpoint: mean survival time, dose: 14.0 mg/kg/injection, schedule: Q01DX001 (ip), vehicle: saline 120 % of control and 121 % of control | endpoint: mean survival time, dose: 14.0 mg/kg/injection, schedule: Q07DX003 (ip), vehicle: saline 117 % of control | endpoint: mean survival time, dose: 16.0 mg/kg/injection, schedule: Q01DX001 (ip), vehicle: saline 108 % of control | endpoint: mean survival time, dose: 16.0 mg/kg/injection, schedule: Q01DX001 (sc), vehicle: saline 98 % of control | endpoint: mean survival time, dose: 16.0 mg/kg/injection, schedule: Q01DX006 (iv), vehicle: saline 107 % of control | endpoint: mean survival time, dose: 16.0 mg/kg/injection, schedule: Q04DX003 (ip), vehicle: saline 112 % of control | endpoint: mean survival time, dose: 16.0 mg/kg/injection, schedule: Q04DX003 (oral), vehicle: saline 101 % of control and 104 % of control | endpoint: mean survival time, dose: 16.0 mg/kg/injection, schedule: Q## X002 (ip), vehicle: saline 103 % of control | endpoint: mean survival time, dose: 16.0 mg/kg/injection, schedule: Q## X003 (ip), vehicle: saline 116 % of control | endpoint: mean survival time, dose: 16.0 mg/kg/injection, schedule: Q## X003 (oral), vehicle: saline 111 % of control and 113 % of control | endpoint: mean survival time, dose: 16.0 mg/kg/injection, schedule: Q## X024 (oral), vehicle: saline 97 % of control and 104 % of control | endpoint: mean survival time, dose: 18.0 mg/kg/injection, schedule: Q01DX014 (ip), vehicle: saline 117 % of control | endpoint: mean survival time, dose: 27.0 mg/kg/injection, schedule: Q01DX001 (ip), vehicle: saline 104 % of control | endpoint: mean survival time, dose: 28.0 mg/kg/injection, schedule: Q01DX001 (ip), vehicle: saline 120 % of control | endpoint: mean survival time, dose: 28.0 mg/kg/injection, schedule: Q07DX003 (ip), vehicle: saline 120 % of control | endpoint: mean survival time, dose: 32.0 mg/kg/injection, schedule: Q01DX001 (ip), vehicle: saline 111 % of control | endpoint: mean survival time, dose: 32.0 mg/kg/injection, schedule: Q01DX001 (sc), vehicle: saline 105 % of control | endpoint: mean survival time, dose: 32.0 mg/kg/injection, schedule: Q01DX009 (ip), vehicle: saline 102 % of control and 119 % of control | endpoint: mean survival time, dose: 32.0 mg/kg/injection, schedule: Q01DX009 (sc), vehicle: saline 109 % of control | endpoint: mean survival time, dose: 32.0 mg/kg/injection, schedule: Q01DX Z (ip), vehicle: saline 95 % of control | endpoint: mean survival time, dose: 32.0 mg/kg/injection, schedule: Q01DX Z (sc), vehicle: saline 118 % of control | endpoint: mean survival time, dose: 32.0 mg/kg/injection, schedule: Q04DX003 (ip), vehicle: saline 115 % of control | endpoint: mean survival time, dose: 32.0 mg/kg/injection, schedule: Q04DX003 (oral), vehicle: saline 110 % of control | endpoint: mean survival time, dose: 32.0 mg/kg/injection, schedule: Q## X002 (ip), vehicle: saline 120 % of control | endpoint: mean survival time, dose: 32.0 mg/kg/injection, schedule: Q## X003 (ip), vehicle: saline 117 % of control | endpoint: mean survival time, dose: 32.0 mg/kg/injection, schedule: Q## X003 (oral), vehicle: saline 109 % of control and 120 % of control | endpoint: mean survival time, dose: 32.0 mg/kg/injection, schedule: Q## X024 (oral), vehicle: saline 121 % of control | endpoint: mean survival time, dose: 35.0 mg/kg/injection, schedule: Q02DX010 (ip), vehicle: other 95 % of control | endpoint: mean survival time, dose: 36.0 mg/kg/injection, schedule: Q02DX010 (ip), vehicle: other 110 % of control | endpoint: mean survival time, dose: 40.0 mg/kg/injection, schedule: Q01DX001 (ip), vehicle: saline 112 % of control | endpoint: mean survival time, dose: 40.0 mg/kg/injection, schedule: Q01DX Z (ip), vehicle: saline 99 % of control | endpoint: mean survival time, dose: 52.0 mg/kg/injection, schedule: Q02DX010 (ip), vehicle: carboxymethylcellulose (CMC) 107 % of control | endpoint: mean survival time, dose: 54.0 mg/kg/injection, schedule: Q02DX010 (ip), vehicle: other 106 % of control | endpoint: mean survival time, dose: 60.0 mg/kg/injection, schedule: Q01DX001 (ip), vehicle: saline 121 % of control | endpoint: mean survival time, dose: 64.0 mg/kg/injection, schedule: Q01DX001 (ip), vehicle: saline 110 % of control | endpoint: mean survival time, dose: 64.0 mg/kg/injection, schedule: Q01DX001 (oral), vehicle: saline 103 % of control | endpoint: mean survival time, dose: 64.0 mg/kg/injection, schedule: Q01DX001 (sc), vehicle: saline 110 % of control | endpoint: mean survival time, dose: 64.0 mg/kg/injection, schedule: Q04DX003 (ip), vehicle: saline 104 % of control and 112 % of control | endpoint: mean survival time, dose: 64.0 mg/kg/injection, schedule: Q04DX003 (oral), vehicle: saline 106 % of control and 120 % of control | endpoint: mean survival time, dose: 64.0 mg/kg/injection, schedule: Q## X002 (ip), vehicle: saline 118 % of control | endpoint: mean survival time, dose: 64.0 mg/kg/injection, schedule: Q## X003 (oral), vehicle: saline 117 % of control and 119 % of control | endpoint: mean survival time, dose: 72.0 mg/kg/injection, schedule: Q## X032 (ip), vehicle: saline 115 % of control and 116 % of control | endpoint: mean survival time, dose: 80.0 mg/kg/injection, schedule: Q04DX002 (ip), vehicle: saline 104 % of control | endpoint: mean survival time, dose: 96.0 mg/kg/injection, schedule: Q03DX006 (ip), vehicle: saline 102 % of control | endpoint: mean survival time, dose: 108.0 mg/kg/injection, schedule: Q## X032 (ip), vehicle: saline 101 % of control | endpoint: mean survival time, dose: 112.0 mg/kg/injection, schedule: Q01DX001 (ip), vehicle: saline 114 % of control | endpoint: mean survival time, dose: 128.0 mg/kg/injection, schedule: Q01DX001 (sc), vehicle: saline 105 % of control | endpoint: mean survival time, dose: 128.0 mg/kg/injection, schedule: Q04DX003 (oral), vehicle: saline 110 % of control | endpoint: mean survival time, dose: 128.0 mg/kg/injection, schedule: Q## X024 (ip), vehicle: saline 112 % of control | endpoint: median survival time, dose: 0.25 mg/kg/injection, schedule: Q03HX024 (ip), vehicle: water 105 % of control | endpoint: median survival time, dose: 2.0 mg/kg/injection, schedule: Q01DX009 (ip), vehicle: water 120 % of control

CCCCCCCCCC(=O)N(CCC)CCC
inactive: endpoint: mean survival time, dose: 100.0 mg/kg/injection, schedule: Q04DX003 (ip), vehicle: saline with Tween-80 91 % of control | endpoint: mean survival time, dose: 200.0 mg/kg/injection, schedule: Q04DX003 (ip), vehicle: saline with Tween-80 88 % of control

CCN(CC)CCNC(Cc1ccccc1)c1ccc(OCc2ccccc2)cc1 (stereo unspecified)
inactive: endpoint: mean survival time, dose: 100.0 mg/kg/injection, schedule: Q01DX001 (ip), vehicle: carboxymethylcellulose (CMC) 100 % of control | endpoint: mean survival time, dose: 200.0 mg/kg/injection, schedule: Q01DX001 (ip), vehicle: carboxymethylcellulose (CMC) 96 % of control | endpoint: mean survival time, dose: 400.0 mg/kg/injection, schedule: Q01DX001 (ip), vehicle: carboxymethylcellulose (CMC) 96 % of control

ClC1(c2ccccc2)C2CCCCC21 (stereo unspecified)
inactive: endpoint: mean survival time, dose: 75.0 mg/kg/injection, schedule: Q01DX001 (ip), vehicle: saline 100 % of control | endpoint: mean survival time, dose: 150.0 mg/kg/injection, schedule: Q01DX001 (ip), vehicle: saline 100 % of control

Reference: PubChem BioAssay AID248 (DTP/NCI, 2004)
